Test results as given in PubChem BioAssay AID248 (DTP/NCI, 2004).
Values joined by “and” are separate entries in the source; they are usually repeats but may differ in a detail not shown here. Equal entries are not always repeated. Toxic doses and inconclusive results are not listed. Cut-off read from the data, not from the text of the source: active = T/C of 150% or more; inactive = T/C below 125%.

Test system: L1210 leukemia ip in BDF1 mice, survival T/C
Test: NCI In Vivo Anticancer Drug Screen. Data for tumor model L1210 Leukemia (intraperitoneal) in B6D2F1 (BDF1) mice
Conditions: endpoint: mean survival time, higher = longer survival
Method in brief: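 Read-out is survival time, reported as the treated-group measurement over the vehicle-control measurement.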

[1] = dose: 100.0 mg/kg/injection, schedule: Q01DX001 (ip), vehicle: saline
[2] = dose: 100.0 mg/kg/injection, schedule: Q01DX009 (ip), vehicle: saline
[3] = dose: 100.0 mg/kg/injection, schedule: Q04DX003 (ip), vehicle: saline
[4] = dose: 200.0 mg/kg/injection, schedule: Q01DX001 (ip), vehicle: saline
[5] = dose: 200.0 mg/kg/injection, schedule: Q04DX003 (ip), vehicle: saline
[6] = dose: 400.0 mg/kg/injection, schedule: Q04DX003 (ip), vehicle: saline
[7] = dose: 200.0 mg/kg/injection, schedule: Q01DX009 (ip), vehicle: saline
[8] = dose: 400.0 mg/kg/injection, schedule: Q01DX009 (ip), vehicle: saline

Measured: T/C

FC(F)c1nc2nc(Cl)c(Cl)nc2[nH]1
inactive: dose: 25.0 mg/kg/injection, schedule: Q01DX009 (ip), vehicle: saline with Tween-80 100 % of control | dose: 25.0 mg/kg/injection, schedule: Q04DX003 (ip), vehicle: saline with Tween-80 101 % of control | dose: 50.0 mg/kg/injection, schedule: Q01DX009 (ip), vehicle: saline with Tween-80 105 % of control | dose: 50.0 mg/kg/injection, schedule: Q04DX003 (ip), vehicle: saline with Tween-80 97 % of control | dose: 100.0 mg/kg/injection, schedule: Q04DX003 (ip), vehicle: saline with Tween-80 102 % of control and 106 % of control

Cc1cc[n+](Cc2ccc([N+](=O)[O-])cc2)cc1
inactive: dose: 25.0 mg/kg/injection, schedule: Q01DX009 (ip), vehicle: saline 94 % of control | dose: 50.0 mg/kg/injection, schedule: Q01DX009 (ip), vehicle: saline 89 % of control | dose: 50.0 mg/kg/injection, schedule: Q04DX003 (ip), vehicle: saline 101 % of control | [1] 96 % of control | [2] 93 % of control | [3] 98 % of control | [4] 100 % of control

c1cc(C2OCCO2)ccn1
inactive: [1] 101 % of control | [3] 107 % of control | [4] 100 % of control | [5] 100 % of control | dose: 400.0 mg/kg/injection, schedule: Q01DX001 (ip), vehicle: saline 100 % of control | [6] 97 % of control

Cc1cc(=O)[nH]c(N/N=C/c2ccccc2)n1
inactive: dose: 100.0 mg/kg/injection, schedule: Q01DX009 (ip), vehicle: gum acacia 88 % of control | dose: 100.0 mg/kg/injection, schedule: Q04DX003 (ip), vehicle: gum acacia 93 % of control | dose: 200.0 mg/kg/injection, schedule: Q04DX003 (ip), vehicle: gum acacia 97 % of control | dose: 400.0 mg/kg/injection, schedule: Q01DX009 (ip), vehicle: gum acacia 91 % of control | dose: 400.0 mg/kg/injection, schedule: Q04DX003 (ip), vehicle: gum acacia 93 % of control

O=C(/C=C/C(=O)c1ccc(-c2ccccc2)cc1)c1ccc(-c2ccccc2)cc1
inactive: dose: 50.0 mg/kg/injection, schedule: Q01DX009 (ip), vehicle: Klucel (hydroxypropylcellulose) (HPC) 92 % of control | dose: 100.0 mg/kg/injection, schedule: Q01DX009 (ip), vehicle: Klucel (hydroxypropylcellulose) (HPC) 87 % of control | dose: 200.0 mg/kg/injection, schedule: Q01DX009 (ip), vehicle: Klucel (hydroxypropylcellulose) (HPC) 90 % of control | dose: 400.0 mg/kg/injection, schedule: Q01DX009 (ip), vehicle: Klucel (hydroxypropylcellulose) (HPC) 87 % of control

C=CCOCC(O)CO (stereo unspecified)
inactive: [2] 108 % of control | [7] 94 % of control | [8] 103 % of control

CN(C)C(=O)Nc1ccc(Cl)c(Cl)c1
inactive: [2] 94 % of control | [3] 103 % of control | [7] 102 % of control | [5] 102 % of control | [8] 93 % of control | [6] 96 % of control
